For 14 molecules, IC50 results are on record in US20260166039A1 (SCHRÖDINGER, INC., priority 2022, published 2026).

For test [1], the target named is T1, Wee1 kinase domain (Homo sapiens, UniProt P30291).
T1 construct: Wee1 kinase domain was purchased from Carna (catalog #05-177); purchased Carna 05-177
Put plainly: Wee1 Kinase Biochemical Assay (ADP-Glo). The settings on record: class symbols; 1 nM Wee1 enzyme, 15 uM ATP, 4 hours at 25° C. The essentials:
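ADP-Glo luminescence readout of ADP produced by 1 nM kinase domain phosphorylating Poly(Lys,Tyr 4:1) (2 ng/mL) at 15 uM ATP. Reaction ran 4 h, 25 °C, in Tris/MgCl2 buffer with BSA and DTT. Inhibition scaled between DMSO (high) and saturating control inhibitor (low).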

Test [2] relates to phosphorylation of Cdc2 Y15 (Wee1 substrate) in A427 cells. Put plainly: Phosphorylated Cdc2 MSD Electrochemiluminescence Assay. The class given is cell-based. The settings on record: Homo sapiens, A-427, class symbols, read-out: A427 pCDC2 MSD IC50. Put shortly:
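Read-out: percent residual phospho-Cdc2 Y15 relative to DMSO and positive-control Wee1 inhibitor, measured by MSD electrochemiluminescence capture/detection antibody assay in cell lysates. A427 cells received duplicate 3-fold compound dilution series 20 h post-seeding, with 6 h total incubation at 37 °C.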

T1 sequence (P30291 299-569 limits assumed): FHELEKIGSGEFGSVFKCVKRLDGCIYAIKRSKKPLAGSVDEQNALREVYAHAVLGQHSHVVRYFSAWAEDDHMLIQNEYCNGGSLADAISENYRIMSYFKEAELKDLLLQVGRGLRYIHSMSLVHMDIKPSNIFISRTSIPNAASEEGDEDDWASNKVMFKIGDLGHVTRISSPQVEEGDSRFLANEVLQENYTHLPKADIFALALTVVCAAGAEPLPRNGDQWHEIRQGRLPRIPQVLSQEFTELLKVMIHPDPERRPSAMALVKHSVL

As for `CC1(C)C[C@H]2N(c3cccc(N4CCOC4=O)n3)c3nc(Nc4ccc([C@@H]5CNCC5(F)F)cc4)ncc3[C@@]2(C)CO1` [Example 680, 3-(6-((4bR,8aR)-2-((4-((R)-4,4-difluoropyrrolidin-3-yl)phenyl)amino)-4b,7,7-trimethyl-4b,7,8,8a-tetrahydropyrano[3′,4′:4,5]pyrrolo[2,3-d]pyrimidin-9(5H)-yl)pyridin-2-yl)oxazolidin-2-one], the 50% inhibitory concentration (IC50) in test [1] was < 0.01 µM; in test [2], 0.1 to 1 µM.

For the molecule `CC1(C)C[C@H]2N(c3cccc(N4CCOC4=O)n3)c3nc(Nc4ccc([C@H]5CNCC5(F)F)cc4)ncc3[C@@]2(C)CO1` [Example 682, 3-(6-((4bR,8aR)-2-((4-((S)-4,4-difluoropyrrolidin-3-yl)phenyl)amino)-4b,7,7-trimethyl-4b,7,8,8a-tetrahydropyrano[3′,4′:4,5]pyrrolo[2,3-d]pyrimidin-9(5H)-yl)pyridin-2-yl)oxazolidin-2-one], the IC50 is < 0.01 µM in test [1] and 0.1 to 1 µM in test [2].

Turning to `CN1CC[C@H]2CN(c3ccc(Nc4ncc5c(n4)N(c4cccc(N6CCOC6=O)n4)[C@@H]4CC(C)(C)OC[C@]54C)cc3)C[C@H]21` [Example 684, 3-(6-((4bR,8aR)-4b,7,7-trimethyl-2-((4-((3aS,6aS)-1-methylhexahydropyrrolo[3,4-b]pyrrol-5(1H)-yl)phenyl)amino)-4b,7,8,8a-tetrahydropyrano[3′,4′:4,5]pyrrolo[2,3-d]pyrimidin-9(5H)-yl)pyridin-2-yl)oxazolidin-2-one], the IC50 was < 0.01 µM in test [1] and 0.1 to 1 µM in test [2].

For `CN1CC[C@@H]2CN(c3ccc(Nc4ncc5c(n4)N(c4cccc(N6CCCC6=O)n4)[C@@H]4CC(C)(C)OC[C@]54C)cc3)C[C@@H]21` [Example 686, 1-(6-((4bR,8aR)-4b,7,7-trimethyl-2-((4-((3aR,6aR)-1-methylhexahydropyrrolo[3,4-b]pyrrol-5(1H)-yl)phenyl)amino)-4b,7,8,8a-tetrahydropyrano[3′,4′:4,5]pyrrolo[2,3-d]pyrimidin-9(5H)-yl)pyridin-2-yl)pyrrolidin-2-one], the IC50 in test [1] is < 0.01 µM; in test [2] it was 0.1 to 1 µM.

`CN1CC[C@H]2CN(c3ccc(Nc4ncc5c(n4)N(c4cccc(N6CCCC6=O)n4)[C@@H]4CC(C)(C)OC[C@]54C)cc3)C[C@H]21` [Example 688, 1-(6-((4bR,8aR)-4b,7,7-trimethyl-2-((4-((3aS,6aS)-1-methylhexahydropyrrolo[3,4-b]pyrrol-5(1H)-yl)phenyl)amino)-4b,7,8,8a-tetrahydropyrano[3′,4′:4,5]pyrrolo[2,3-d]pyrimidin-9(5H)-yl)pyridin-2-yl)pyrrolidin-2-one]: the IC50 in test [1] is < 0.01 µM; in test [2], < 0.1 µM.

`CN1CC2(C1)CN(c1ccc(Nc3ncc4c(n3)N(c3cccc(N5CCCC5=O)n3)[C@@H]3CC(C)(C)OC[C@]43C)cc1)C2` [Example 690, 1-(6-((4bR,8aR)-4b,7,7-trimethyl-2-((4-(6-methyl-2,6-diazaspiro[3.3]heptan-2-yl)phenyl)amino)-4b,7,8,8a-tetrahydropyrano[3′,4′:4,5]pyrrolo[2,3-d]pyrimidin-9(5H)-yl)pyridin-2-yl)pyrrolidin-2-one]: the IC50 was < 0.01 µM in test [1] and 0.1 to 1 µM in test [2].

With `CN1C[C@@H]2CN(c3ccc(Nc4ncc5c(n4)N(c4cccc(N6CCOC6=O)n4)[C@@H]4CC(C)(C)OC[C@]54C)cc3)C[C@@H]2C1` [Example 692, 3-(6-((4bR,8aR)-4b,7,7-trimethyl-2-((4-((3aR,6aS)-5-methylhexahydropyrrolo[3,4-c]pyrrol-2(1H)-yl)phenyl)amino)-4b,7,8,8a-tetrahydropyrano[3′,4′:4,5]pyrrolo[2,3-d]pyrimidin-9(5H)-yl)pyridin-2-yl)oxazolidin-2-one], the figures for the IC50 in test [1] and in test [2] were < 0.01 µM and 0.1 to 1 µM, respectively.

As for `CN1C[C@@H]2CN(c3ccc(Nc4ncc5c(n4)N(c4cccc(N6CCCC6=O)n4)[C@@H]4CC(C)(C)OC[C@]54C)cc3)C[C@@H]2C1` [Example 694, 1-(6-((4bR,8aR)-4b,7,7-trimethyl-2-((4-((3aR,6aS)-5-methylhexahydropyrrolo[3,4-c]pyrrol-2(1H)-yl)phenyl)amino)-4b,7,8,8a-tetrahydropyrano[3′,4′:4,5]pyrrolo[2,3-d]pyrimidin-9(5H)-yl)pyridin-2-yl)pyrrolidin-2-one], the IC50 is < 0.01 µM in test [1] and 0.1 to 1 µM in test [2].

Take `CN1CC(c2ccc(Nc3ncc4c(n3)N(c3cccc(N5CCCC5=O)n3)[C@@H]3CC(C)(C)OC[C@]43C)cc2)C1` [Example 696, 1-(6-((4bR,8aR)-4b,7,7-trimethyl-2-((4-(1-methylazetidin-3-yl)phenyl)amino)-4b,7,8,8a-tetrahydropyrano[3′,4′:4,5]pyrrolo[2,3-d]pyrimidin-9(5H)-yl)pyridin-2-yl)pyrrolidin-2-one]: the values for the IC50 in test [1] and in test [2] were < 0.01 µM and 0.1 to 1 µM, respectively.

With `CN1CC(c2ccc(Nc3ncc4c(n3)N(c3cccc(N5CCOC5=O)n3)[C@@H]3CC(C)(C)OC[C@]43C)cc2)C1` [Example 698, 3-(6-((4bR,8aR)-4b,7,7-trimethyl-2-((4-(1-methylazetidin-3-yl)phenyl)amino)-4b,7,8,8a-tetrahydropyrano[3′,4′:4,5]pyrrolo[2,3-d]pyrimidin-9(5H)-yl)pyridin-2-yl)oxazolidin-2-one], the figures for the IC50 in test [1] and in test [2] were < 0.01 µM and 0.1 to 1 µM, respectively.

Turning to `CN1[C@@H]2C[C@H]1CN(c1ccc(Nc3ncc4c(n3)N(c3cccc(N5CCOC5=O)n3)[C@@H]3CC(C)(C)OC[C@]43C)cc1)C2` [Example 700, 3-(6-((4bR,8aR)-4b,7,7-trimethyl-2-((4-((1R,5S)-6-methyl-3,6-diazabicyclo[3.1.1]heptan-3-yl)phenyl)amino)-4b,7,8,8a-tetrahydropyrano[3′,4′:4,5]pyrrolo[2,3-d]pyrimidin-9(5H)-yl)pyridin-2-yl)oxazolidin-2-one], the half-inhibitory concentration (IC50) in test [1] was < 0.01 µM; in test [2], 0.1 to 1 µM.

Consider `CN1[C@@H]2C[C@H]1CN(c1ccc(Nc3ncc4c(n3)N(c3cccc(N5CCCC5=O)n3)[C@@H]3CC(C)(C)OC[C@]43C)cc1)C2` [Example 703, 1-(6-((4bR,8aR)-4b,7,7-trimethyl-2-((4-((1R,5S)-6-methyl-3,6-diazabicyclo[3.1.1]heptan-3-yl)phenyl)amino)-4b,7,8,8a-tetrahydropyrano[3′,4′:4,5]pyrrolo[2,3-d]pyrimidin-9(5H)-yl)pyridin-2-yl)pyrrolidin-2-one], for which the IC50 is < 0.01 µM in test [1] and 0.1 to 1 µM in test [2].

With `CN1CC[C@@H]2CN(c3ccc(Nc4ncc5c(n4)N(c4cccc(N6CCOC6=O)n4)[C@@H]4CC(C)(C)OC[C@]54C)cc3)C[C@@H]21` [Example 705, 3-(6-((4bR,8aR)-4b,7,7-trimethyl-2-((4-((3aR,6aR)-1-methylhexahydropyrrolo[3,4-b]pyrrol-5(1H)-yl)phenyl)amino)-4b,7,8,8a-tetrahydropyrano[3′,4′:4,5]pyrrolo[2,3-d]pyrimidin-9(5H)-yl)pyridin-2-yl)oxazolidin-2-one], the IC50 in test [1] was < 0.01 µM; in test [2] it was 0.1 to 1 µM.

Turning to `CN1CC2(C1)CN(c1ccc(Nc3ncc4c(n3)N(c3cccc(N5CCOC5=O)n3)[C@@H]3CC(C)(C)OC[C@]43C)cc1)C2` [Example 707, 3-(6-((4bR,8aR)-4b,7,7-trimethyl-2-((4-(6-methyl-2,6-diazaspiro[3.3]heptan-2-yl)phenyl)amino)-4b,7,8,8a-tetrahydropyrano[3′,4′:4,5]pyrrolo[2,3-d]pyrimidin-9(5H)-yl)pyridin-2-yl)oxazolidin-2-one], the half-inhibitory concentration (IC50) in test [1] is < 0.01 µM; in test [2], 0.1 to 1 µM.

One may read the IC50 as the concentration that inhibits the measured activity by half.
